According to PMC10046961, “High-Throughput Screening Assay for Detecting Drug-Induced Changes in Synchronized Neuronal Oscillations and Potential Seizure Risk Based on Ca^2+ Fluorescence Measurements in Human Induced Pluripotent Stem Cell (hiPSC)-Derived Neuronal 2D and 3D Cultures” (Cells, 2023):
Where two headings read alike, the source gives them in different places. Marks after values point to notes of the source that are not given here.

Key:
[1] = ref PharmaPendium, cited from earlier work
[2] = test system: hiPSC-derived neurons co-cultured with human primary astrocytes in 2D; assay: Ca2+ transient oscillation assay (FDSS), 2D co-culture; type: cell-based; conditions: for activation at 0.37 µM / activation at 1.11 µM / activation at 3.33 µM / activation at 10 µM / activation at 30 µM: Homo sapiens, 1 h, 60 min
From the text: (§1) In this study, we used cryopreserved excitatory neurons that were differentiated from human induced pluripotent stem cells (hiPSCs; Cat #: EX-SeV-CW50065) (Elixirgen Scientific, Inc., Baltimore, MD, USA). The hiPSCs used, namely, CW50065 were derived from a healthy person and distributed by the California Institute of Regenerative Medicine Human Induced Pluripotent Stem Cell Repository. Human iPSC-derived excitatory neurons were differentiated from CW50065 using a proprietary cocktail of differentiation-inducing factors called Quick-Neuron™ EX-SeV (Batch number: EX-SeV-CW50065-L; Elixirgen Scientific, Inc.), cryopreserved 3 days after differentiation induction and distributed. Human iPSC-derived excitatory neurons were recovered from cryopreservation and maintained essentially as instructed by the manufacturer.
(§2) Cryopreserved human primary astrocytes (#N7805100, Thermo Fisher Scientific, Waltham, MA, USA) were recovered as instructed by the manufacturer and seeded in a 10 cm dish at the density of 2,000,000 cells. The culture was maintained using the Human Astrocytes Kit (#N7805200, Thermo Fisher Scientific) for 12 days. Half of the culture medium was replaced with fresh medium every 2–3 days during the culture period. These astrocytes were harvested using StemPro™ Accutase™ Cell Dissociation Reagent (#A1110501, Thermo Fisher Scientific) when they reached confluency. These cells were cryopreserved in STEM-CELLBANKER® GMP grade (ZENOGEN PHARMA, Kohriyama, Fukushima Japan) at the density of 2,000,000 cells per vial as working stocks for co-culture with neurons in 2D and 3D conditions described below. After a working stock was recovered, astrocytes were directly mixed with hiPSC-derived neurons for plating without further expansion.
Live neurons (hiPSC neurons) and human primary astrocytes were recovered from cryopreservation as described above and seeded in each well of 384-well plates at the density of 10,000 cells (HiPSC-cortical neurons) and human primary astrocytes at 2500 cells (ratio 4:1). These co-cultures were maintained under the medium conditions recommended by the manufacturer, namely Medium N(G2P), to complete the differentiation of excitatory neurons for the first week. […] Half of the culture medium was replaced with fresh medium every 3–4 days during the culture period.
After the incubation, the culture medium containing Cal-520 was replaced with 50 μL of HBSS supplemented with 0.1 mM MgCl2, 2 mM CaCl2, 10 mM HEPES, and 10 mM glucose and incubated at 37 ℃ for 15 min.
(§3) Prior to the fluorescence measurements, all wells to be measured were treated with 0.04% dimethyl sulfoxide (DMSO) to stabilize the oscillation signal. The first recording started 10 min after the addition of DMSO for each plate for 20 min. The effects of the test compound were recorded again starting 60 min after the administration of compounds, for 20 min.
Twenty-five compounds (Table 1) were first dissolved in either DMSO (most compounds) or distilled water depending on the compound, and further diluted with PBS to produce stock solutions concentrated 10-fold. […] The final concentration of DMSO was adjusted to 0.1%. Changes in the fluorescence intensity (FI) produced by Ca^2+ flux were measured at 37 °C for all wells of a 384-well plate simultaneously using the FDSS/µCell system (#C13299, Hamamatsu Photonics, Hamamatsu, Shizuoka, Japan). The excitation and the emission wavelengths were 470 nm and 540 nm, respectively. The recording duration was 20 min with a sampling frequency of 2 Hz for cells cultured under 2D conditions and 10 Hz for cells cultured under 3D conditions.

[3] = test system: hiPSC-derived neurons co-cultured with human primary astrocytes in 3D; assay: Ca2+ transient oscillation assay (FDSS), 3D spheroids; type: cell-based; conditions: for Area under the curve - 3D Mean / Peak Number—3D Mean / Peak amplitude - 3D Mean / Peak width - 3D Mean / Peak-to-peak interval - 3D Mean: 60 min
From the text: as §1, §2
We used U-shaped-bottom 96-well plates (#174925, Thermo Fisher Scientific) without any prior coating to make a spheroid in each well. Neurons and astrocytes were seeded and maintained as described for 2D cultures, except for the following modifications. First, neurons and astrocytes were seeded in each well of the 96-well plates at the density of 8000 hiPSC neurons with 8000 human primary astrocytes (8000)/well (ratio 1:1). Second, when the differentiation of excitatory neurons was completed one week after seeding, cells were fed with BrainPhys^TM Neuronal Medium (#05793, […] Technologies, Vancouver, BC, Canada) supplemented with 2% SM1 Neuronal Supplement, 1% N2 Supplement-A, and 10% Neuron culture medium for 5 weeks.
Cells maintained as spheroids (3D) in the U-shaped-bottom 96-well plates were transferred into 384-well spheroid plates (#4516, Merck, Corning, NY, USA) with 25 µL of the culture medium. A Ca^2+-indicating dye solution including […] was prepared using the EarlyTox™ Cardiotoxicity Kit (#R8211, Molecular Devices, LLC, San Jose, CA, USA) according to the manufacturer. Then, the same volume of the dye solution was dispensed into each well.
as §3
Twenty-five compounds (Table 1) were first dissolved in either DMSO (most compounds) or distilled water depending on the compound, and further diluted with PBS to produce stock solutions concentrated 10-fold. Then, 5 μL of each compound solution was injected into each well using an automatic pipetting robot (#4505, ASSIST PLUS pipetting robot, Integra Biosciences Corp., Hudson, NH, USA), so that the final concentration of each compound was 1-fold nominal in the well.

[4] = Table 1, peak plasma concentration in men, free therapeutic Cmax
[5] = Table 2, highest plasma concentration in humans after the therapeutic dose
[6] = read-out: Area under the curve - 2D Mean
[7] = read-out: Peak amplitude - 2D Mean
[8] = read-out: Peak-to-peak interval - 2D Mean

For `Nc1ccncc1` [4-AP, 4-Aminopyridine], the “Free Cmax” value [1, 4] is listed as 25 to 75 nM, the “Free Cmax” value [1, 5] is listed as 25 to 75 nM and the “effect on peak number / Ca2+ neuronal oscillations, in words” value ([2]; 2D format) is listed as “significantly increased peak number”. For the same compound, the “response of positive controls on Ca2+ transient oscillations” value ([2]; 2D, 4-AP 30 µM, kainic acid 100 µM) was “significant responses”, the “change of Ca2+ neuronal oscillations (Figure 1)” value ([2]; 4-AP at 30 µM, kainic acid at 10 µM) was “large increases” and the activation at 0.37 µM [2, 6] was 39.5%. It also gave an activation at 0.37 µM ([2]; read-out: Peak Number—2D Mean) of 9%, an activation at 0.37 µM [2, 7] of 13.3% and an activation at 0.37 µM ([2]; read-out: Peak width - 2D Mean) of 34%. It also gave an activation at 0.37 µM [2, 8] of -13%, an activation at 1.11 µM [2, 6] of 18.7% and an activation at 1.11 µM ([2]; read-out: Peak Number—2D Mean) of 70.3%. It also gave an activation at 1.11 µM [2, 7] of 7.8%, an activation at 1.11 µM ([2]; read-out: Peak width - 2D Mean) of 14.3% and an activation at 1.11 µM [2, 8] of -29.8%. For the same compound, the activation at 3.33 µM [2, 6] was 17.6%, the activation at 3.33 µM ([2]; read-out: Peak Number—2D Mean) was 85.8% and the activation at 3.33 µM [2, 7] was 10.4%. For the same compound, the activation at 3.33 µM ([2]; read-out: Peak width - 2D Mean) was 12.6%, the activation at 3.33 µM [2, 8] was -42.4% and the activation at 10 µM [2, 6] was 1.3%. The activation at 10 µM ([2]; read-out: Peak Number—2D Mean) was 110%, the activation at 10 µM [2, 7] was 8.5% and the activation at 10 µM ([2]; read-out: Peak width - 2D Mean) was -6.3%. The activation at 10 µM [2, 8] was -49.8%, the “Area under the curve - 3D Mean” value ([3]; 0.37 µM) was 53.7 % change from baseline and the “Peak Number—3D Mean” value ([3]; 0.37 µM) was 16.7 % change from baseline. For the same compound, the “Peak amplitude - 3D Mean” value ([3]; 0.37 µM) was 44.3 % change from baseline, the “Peak width - 3D Mean” value ([3]; 0.37 µM) was 2.8 % change from baseline and the “Peak-to-peak interval - 3D Mean” value ([3]; 0.37 µM) was −9.2 % change from baseline. For the same compound, the “Area under the curve - 3D Mean” value ([3]; 1.11 µM) was 54.1 % change from baseline, the “Peak Number—3D Mean” value ([3]; 1.11 µM) was 62.4 * % change from baseline and the “Peak amplitude - 3D Mean” value ([3]; 1.11 µM) was 39.6 % change from baseline. The “Peak width - 3D Mean” value ([3]; 1.11 µM) was 7.7 % change from baseline, the “Peak-to-peak interval - 3D Mean” value ([3]; 1.11 µM) was −24.1 % change from baseline and the “Area under the curve - 3D Mean” value ([3]; 3.33 µM) was 97.2 % change from baseline. For the same compound, the “Peak Number—3D Mean” value ([3]; 3.33 µM) was 24.1 * % change from baseline, the “Peak amplitude - 3D Mean” value ([3]; 3.33 µM) was 46.1 % change from baseline and the “Peak width - 3D Mean” value ([3]; 3.33 µM) was 35.1 % change from baseline. For the same compound, the “Peak-to-peak interval - 3D Mean” value ([3]; 3.33 µM) was −17.6 % change from baseline, the “Area under the curve - 3D Mean” value ([3]; 10 µM) was 72.3 % change from baseline and the “Peak Number—3D Mean” value ([3]; 10 µM) was 89.0 ** % change from baseline. The “Peak amplitude - 3D Mean” value ([3]; 10 µM) was 42.8 % change from baseline, the “Peak width - 3D Mean” value ([3]; 10 µM) was 21.4 % change from baseline and the “Peak-to-peak interval - 3D Mean” value ([3]; 10 µM) was −47.2 % change from baseline. For the same compound, the “response of positive controls on Ca2+ transient oscillations” value ([3]; 3D, 4-AP 30 µM, kainic acid 100 µM) was “significant responses”.
In the case of `CC(=O)Nc1ccc(O)cc1` [Acetaminophen], the “Free Cmax” value [1, 4] is given as 460 nM, the “Free Cmax” value [1, 5] is given as 460 nM and the “effect on peak count within expected therapeutic exposure levels” value ([2]; 2D) is given as “did not significantly reduce peak count”. The “effect on Ca2+ neuronal oscillations / peak count at 30 µM, in words” value ([2]; 2D, 30 µM, listed as Paracetamol) was “did reduce”, the activation at 1.11 µM [2, 6] was 23% and the activation at 1.11 µM ([2]; read-out: Peak Number—2D Mean) was -11.7%. For the same compound, the activation at 1.11 µM [2, 7] was 8.8%, the activation at 1.11 µM ([2]; read-out: Peak width - 2D Mean) was 13% and the activation at 1.11 µM [2, 8] was 34%. For the same compound, the activation at 3.33 µM [2, 6] was 35.8%, the activation at 3.33 µM ([2]; read-out: Peak Number—2D Mean) was -25% and the activation at 3.33 µM [2, 7] was 12.3%. It also gave an activation at 3.33 µM ([2]; read-out: Peak width - 2D Mean) of 34.3%, an activation at 3.33 µM [2, 8] of -35.3% and an activation at 10 µM [2, 6] of 13.2%. The activation at 10 µM ([2]; read-out: Peak Number—2D Mean) was -18.2%, the activation at 10 µM [2, 7] was -0.3% and the activation at 10 µM ([2]; read-out: Peak width - 2D Mean) was 16.2%. For the same compound, the activation at 10 µM [2, 8] was -14.5%, the activation at 30 µM ([2]; 30 µM, read-out: Area under the curve - 2D Mean) was -93.2% and the activation at 30 µM ([2]; 30 µM, read-out: Peak Number—2D Mean) was -94.5%. For the same compound, the activation at 30 µM ([2]; 30 µM, read-out: Peak amplitude - 2D Mean) was -89.8%, the activation at 30 µM ([2]; 30 µM, read-out: Peak width - 2D Mean) was -92.5% and the activation at 30 µM ([2]; 30 µM, read-out: Peak-to-peak interval - 2D Mean) was -100%. For the same compound, the “Area under the curve - 3D Mean” value ([3]; 1.11 µM) was 104.3 % change from baseline, the “Peak Number—3D Mean” value ([3]; 1.11 µM) was 2.2 % change from baseline and the “Peak amplitude - 3D Mean” value ([3]; 1.11 µM) was 97.4 % change from baseline. The “Peak width - 3D Mean” value ([3]; 1.11 µM) was 0.6 % change from baseline, the “Peak-to-peak interval - 3D Mean” value ([3]; 1.11 µM) was 12.7 % change from baseline and the “Area under the curve - 3D Mean” value ([3]; 3.33 µM) was 121.7 % change from baseline. The “Peak Number—3D Mean” value ([3]; 3.33 µM) was −3.0 % change from baseline, the “Peak amplitude - 3D Mean” value ([3]; 3.33 µM) was 106.4 % change from baseline and the “Peak width - 3D Mean” value ([3]; 3.33 µM) was 5.9 % change from baseline. For the same compound, the “Peak-to-peak interval - 3D Mean” value ([3]; 3.33 µM) was 17.4 % change from baseline, the “Area under the curve - 3D Mean” value ([3]; 10 µM) was 122.4 % change from baseline and the “Peak Number—3D Mean” value ([3]; 10 µM) was 12.5 % change from baseline. For the same compound, the “Peak amplitude - 3D Mean” value ([3]; 10 µM) was 108.6 % change from baseline, the “Peak width - 3D Mean” value ([3]; 10 µM) was 6.3 % change from baseline and the “Peak-to-peak interval - 3D Mean” value ([3]; 10 µM) was −6.2 % change from baseline. For the same compound, the “Area under the curve - 3D Mean” value ([3]; 30 µM) was 132.0 % change from baseline, the “Peak Number—3D Mean” value ([3]; 30 µM) was 47.2 * % change from baseline and the “Peak amplitude - 3D Mean” value ([3]; 30 µM) was 113.9 % change from baseline. The “Peak width - 3D Mean” value ([3]; 30 µM) was 9.0 % change from baseline and the “Peak-to-peak interval - 3D Mean” value ([3]; 30 µM) was −8.8 % change from baseline.
